From ChEMBL document CHEMBL4184087, “Synthesis, optical properties and cytotoxicity of meso-heteroatom substituted IR-786 analogs” (Bioorg Med Chem Lett, 2018) come the findings set out here.

One data set has as its system PC-3. In words: Antiproliferative activity against human PC3 cells after 48 hrs by MTT assay. Format: functional, cell-based. The following applies: PC-3, 48 h. (In general: Tetrazolium dyes change colour on reduction, which living cells bring about.)
Data set [1] in a line: Photostability of the compound in anhydrous methanol solution under UV irradiation of 15 W after 24 hrs by UV-vis spectroscopic analysis.
Data set [2] in a line: Stability of the compound in anhydrous methanol solution under dark condition after 24 hrs by UV-vis spectroscopic analysis.

SMILES strings stand for the structures.

For the compound `CCN(CCO)C1=C(/C=C/C2=[N+](C)c3ccccc3C2(C)C)CCC/C1=C\C=C1\N(C)c2ccccc2C1(C)C`, the concentration for half-maximal inhibition (IC50) – broadly, the midpoint of a concentration-inhibition curve – with PC-3 is 9.08 µM.

The compound `CN(CCO)C1=C(/C=C/C2=[N+](C)c3ccccc3C2(C)C)CCC/C1=C\C=C1\N(C)c2ccccc2C1(C)C` came in with an IC50 with PC-3 of 9.23 µM.

For `CN(C)CCSC1=C(/C=C/C2=[N+](C)c3ccccc3C2(C)C)CCC/C1=C\C=C1\N(C)c2ccccc2C1(C)C`, half-maximal inhibition in the data set on PC-3 (IC50) required 6.04 µM.

Take `CN(C)CCNC1=C(/C=C/C2=[N+](C)c3ccccc3C2(C)C)CCC/C1=C\C=C1\N(C)c2ccccc2C1(C)C`: the IC50 with PC-3 was 13.2 µM.

On to `CN1/C(=C/C=C2\CCCC(/C=C/C3=[N+](C)c4ccccc4C3(C)C)=C2Sc2ccncc2)C(C)(C)c2ccccc21.[I-]`, for which 12.5 µM corresponded to half-maximal inhibition in the data set with PC-3 (IC50). Moreover, the Stability result in data set [1] and in data set [2] was “Stable” in each case.

In the data set with PC-3, `CN1/C(=C/C=C2\CCCC(/C=C/C3=[N+](C)c4ccccc4C3(C)C)=C2N2CCC(CO)CC2)C(C)(C)c2ccccc21` came in with an IC50 of 9.33 µM.

As to `CN1/C(=C/C=C2\CCCC(/C=C/C3=[N+](C)c4ccccc4C3(C)C)=C2NCCO)C(C)(C)c2ccccc21.[I-]`, the IC50 in the data set with PC-3 is 4.73 µM. For the same compound, the Stability entry in data set [1] and in data set [2] was “Stable” in each case.

For `CN1/C(=C/C=C2\CCCC(/C=C/C3=[N+](C)c4ccccc4C3(C)C)=C2Oc2ccncc2)C(C)(C)c2ccccc21.[I-]`, the IC50 in the data set on PC-3 was found to be 5.22 µM. Besides, the Stability entry in data set [1] and in data set [2] was “Stable” throughout.

Compound `COc1cccc2c1C(=O)c1c(O)c3c(c(O)c1C2=O)C[C@@](O)(C(=O)CO)C[C@@H]3O[C@H]1C[C@H](N)[C@H](O)[C@H](C)O1` [DOXORUBICIN] came in with an IC50 in the data set with PC-3 of 2.6 µM.
